Source: doi:10.1101/2021.04.08.439011v1 (biorxiv, 2021)
Where two headings read alike, the source gives them in different places.

Key:
YSK4 = YSK4 (Homo sapiens, UniProt Q56UN5); settings: 1 µM; binder
BMX = BMX (Homo sapiens, UniProt P51813); settings: 1 µM; binder
PIK3CA = PIK3CA (Homo sapiens, UniProt P42336); settings: 1 µM; binder
BMPR2 = BMPR2 (Homo sapiens, UniProt Q13873); settings: 1 µM; binder
BRSK2 = BRSK2 (Homo sapiens, UniProt Q8IWQ3); settings: 1 µM; binder
ERK1 = ERK1 (Homo sapiens, UniProt P27361); settings: 1 µM; binder
MEK4 = MEK4 (Homo sapiens, UniProt P45985); settings: 1 µM; binder
ULK3 = ULK3 (Homo sapiens, UniProt Q6PHR2); settings: 1 µM; binder
EPHB4 = EPHB4 (Homo sapiens, UniProt P54760); settings: 1 µM; binder
GRK4 = GRK4 (Homo sapiens, UniProt P32298); settings: 1 µM; binder
STK35 = STK35 (Homo sapiens, UniProt Q8TDR2); settings: 1 µM; binder
NEK4 = NEK4 (Homo sapiens, UniProt P51957); settings: 1 µM; binder
CDKL2 = CDKL2 (Homo sapiens, UniProt Q92772); settings: 1 µM; binder
LRRK2(G2019S) = LRRK2(G2019S) (Homo sapiens, UniProt Q5S007, G2019S); settings: 1 µM; binder
KIT(V559D) = KIT(V559D) (Homo sapiens, UniProt P10721, V559D); settings: 1 µM; binder
EGFR(L861Q) = EGFR(L861Q) (Homo sapiens, UniProt P00533, L861Q); settings: 1 µM; binder
EPHA8 = EPHA8 (Homo sapiens, UniProt P29322); settings: 1 µM; binder
RPS6KA1 = RPS6KA1 (Homo sapiens, UniProt Q15418); settings: binder
CDK19 = CDK19 (Homo sapiens, UniProt Q9BWU1); settings: 1 µM; binder
CAMK1 = CAMK1 (Homo sapiens, UniProt Q14012); settings: 1 µM; binder
DDR2 = DDR2 (Homo sapiens, UniProt Q16832); settings: 1 µM; binder
ARK5 = ARK5 (Homo sapiens, UniProt O60285); settings: 1 µM; binder
PRKG2 = PRKG2 (Homo sapiens, UniProt Q13237); settings: 1 µM; binder
PIK3CA(Q546K) = PIK3CA(Q546K) (Homo sapiens, UniProt P42336, Q546K); settings: 1 µM; binder
CDK2 = CDK2 (Homo sapiens, UniProt P24941); settings: 1 µM; binder
CDC2L1 = CDC2L1 (Homo sapiens, UniProt P21127); settings: 1 µM; binder
PKAC-beta = PKAC-beta (Homo sapiens, UniProt P22694); settings: 1 µM; binder
FLT3-autoinhibited = FLT3-autoinhibited (Homo sapiens, UniProt P36888); settings: 1 µM; binder
SRMS = SRMS (Homo sapiens, UniProt Q9H3Y6); settings: 1 µM; binder
CDK3 = CDK3 (Homo sapiens, UniProt Q00526); settings: 1 µM; binder

Chain of RPS6KA1 (Q15418 whole entry): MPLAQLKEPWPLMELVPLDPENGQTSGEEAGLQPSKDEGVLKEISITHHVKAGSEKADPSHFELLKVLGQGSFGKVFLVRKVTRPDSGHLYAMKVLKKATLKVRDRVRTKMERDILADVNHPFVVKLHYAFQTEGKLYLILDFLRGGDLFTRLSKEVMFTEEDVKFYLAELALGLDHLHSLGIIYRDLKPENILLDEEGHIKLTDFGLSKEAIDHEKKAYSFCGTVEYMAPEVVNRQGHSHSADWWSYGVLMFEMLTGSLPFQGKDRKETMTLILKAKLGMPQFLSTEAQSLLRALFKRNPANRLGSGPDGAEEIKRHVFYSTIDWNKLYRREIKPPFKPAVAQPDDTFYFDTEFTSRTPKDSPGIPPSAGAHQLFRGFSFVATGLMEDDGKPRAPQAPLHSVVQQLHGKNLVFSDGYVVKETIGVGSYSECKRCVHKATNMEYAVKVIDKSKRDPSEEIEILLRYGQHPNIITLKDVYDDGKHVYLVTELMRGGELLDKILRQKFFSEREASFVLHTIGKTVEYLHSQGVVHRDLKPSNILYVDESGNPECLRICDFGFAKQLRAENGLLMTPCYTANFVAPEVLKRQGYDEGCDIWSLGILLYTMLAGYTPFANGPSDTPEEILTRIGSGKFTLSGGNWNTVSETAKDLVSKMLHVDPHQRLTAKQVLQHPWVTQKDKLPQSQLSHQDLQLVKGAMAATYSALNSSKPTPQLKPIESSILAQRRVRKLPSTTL
Chain of CDC2L1 (P21127 whole entry): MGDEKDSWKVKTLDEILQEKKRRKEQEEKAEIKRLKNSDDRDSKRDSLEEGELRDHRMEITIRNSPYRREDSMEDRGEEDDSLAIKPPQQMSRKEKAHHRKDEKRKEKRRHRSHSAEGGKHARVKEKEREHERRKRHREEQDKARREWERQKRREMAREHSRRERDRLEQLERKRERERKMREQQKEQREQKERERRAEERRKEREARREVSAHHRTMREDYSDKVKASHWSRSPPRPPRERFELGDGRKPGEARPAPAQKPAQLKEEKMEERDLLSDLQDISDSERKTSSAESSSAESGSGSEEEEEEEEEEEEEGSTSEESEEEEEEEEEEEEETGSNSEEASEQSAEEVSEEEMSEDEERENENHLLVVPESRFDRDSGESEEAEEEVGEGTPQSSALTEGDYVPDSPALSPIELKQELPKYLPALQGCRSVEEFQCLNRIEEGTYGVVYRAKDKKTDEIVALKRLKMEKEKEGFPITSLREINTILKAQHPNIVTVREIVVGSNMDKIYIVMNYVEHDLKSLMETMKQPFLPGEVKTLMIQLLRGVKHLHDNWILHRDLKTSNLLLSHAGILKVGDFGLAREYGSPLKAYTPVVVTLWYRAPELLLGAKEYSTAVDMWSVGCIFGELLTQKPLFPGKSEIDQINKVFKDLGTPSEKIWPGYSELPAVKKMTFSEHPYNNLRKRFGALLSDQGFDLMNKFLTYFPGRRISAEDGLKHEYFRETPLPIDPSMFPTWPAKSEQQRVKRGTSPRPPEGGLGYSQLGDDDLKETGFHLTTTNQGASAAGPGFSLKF
Chain of GRK4 (P32298 whole entry): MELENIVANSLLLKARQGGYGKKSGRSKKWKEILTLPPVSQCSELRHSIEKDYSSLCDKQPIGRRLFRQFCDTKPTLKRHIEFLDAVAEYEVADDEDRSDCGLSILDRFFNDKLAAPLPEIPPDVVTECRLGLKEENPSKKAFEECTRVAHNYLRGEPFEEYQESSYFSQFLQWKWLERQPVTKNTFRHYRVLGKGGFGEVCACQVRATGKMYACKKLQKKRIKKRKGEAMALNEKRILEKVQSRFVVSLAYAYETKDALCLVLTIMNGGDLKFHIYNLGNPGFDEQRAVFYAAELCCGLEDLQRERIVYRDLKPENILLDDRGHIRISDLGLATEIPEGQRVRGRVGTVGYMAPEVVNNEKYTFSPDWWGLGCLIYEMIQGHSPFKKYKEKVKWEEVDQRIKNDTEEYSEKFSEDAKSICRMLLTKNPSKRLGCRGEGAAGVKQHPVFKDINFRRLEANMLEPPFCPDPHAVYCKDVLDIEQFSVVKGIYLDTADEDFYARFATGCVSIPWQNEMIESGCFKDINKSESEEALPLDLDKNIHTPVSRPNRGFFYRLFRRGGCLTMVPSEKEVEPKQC
Chain of ARK5 (O60285 whole entry): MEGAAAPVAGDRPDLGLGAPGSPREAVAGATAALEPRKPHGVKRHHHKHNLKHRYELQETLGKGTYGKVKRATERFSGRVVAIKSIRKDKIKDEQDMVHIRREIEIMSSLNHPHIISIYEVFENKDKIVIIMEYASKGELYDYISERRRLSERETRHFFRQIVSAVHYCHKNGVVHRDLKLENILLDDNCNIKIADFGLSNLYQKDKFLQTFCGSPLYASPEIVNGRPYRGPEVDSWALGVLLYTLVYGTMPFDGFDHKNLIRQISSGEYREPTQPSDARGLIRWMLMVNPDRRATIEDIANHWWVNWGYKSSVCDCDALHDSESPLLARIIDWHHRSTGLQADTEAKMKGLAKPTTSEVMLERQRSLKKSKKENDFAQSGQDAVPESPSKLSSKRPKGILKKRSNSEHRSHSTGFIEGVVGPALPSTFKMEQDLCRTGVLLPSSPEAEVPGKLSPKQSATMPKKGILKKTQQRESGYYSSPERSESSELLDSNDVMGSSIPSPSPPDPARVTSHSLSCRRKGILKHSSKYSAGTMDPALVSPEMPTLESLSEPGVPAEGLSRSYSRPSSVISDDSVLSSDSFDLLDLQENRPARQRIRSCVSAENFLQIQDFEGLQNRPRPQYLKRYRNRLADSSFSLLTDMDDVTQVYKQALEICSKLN
Chain of EPHB4 (P54760 whole entry): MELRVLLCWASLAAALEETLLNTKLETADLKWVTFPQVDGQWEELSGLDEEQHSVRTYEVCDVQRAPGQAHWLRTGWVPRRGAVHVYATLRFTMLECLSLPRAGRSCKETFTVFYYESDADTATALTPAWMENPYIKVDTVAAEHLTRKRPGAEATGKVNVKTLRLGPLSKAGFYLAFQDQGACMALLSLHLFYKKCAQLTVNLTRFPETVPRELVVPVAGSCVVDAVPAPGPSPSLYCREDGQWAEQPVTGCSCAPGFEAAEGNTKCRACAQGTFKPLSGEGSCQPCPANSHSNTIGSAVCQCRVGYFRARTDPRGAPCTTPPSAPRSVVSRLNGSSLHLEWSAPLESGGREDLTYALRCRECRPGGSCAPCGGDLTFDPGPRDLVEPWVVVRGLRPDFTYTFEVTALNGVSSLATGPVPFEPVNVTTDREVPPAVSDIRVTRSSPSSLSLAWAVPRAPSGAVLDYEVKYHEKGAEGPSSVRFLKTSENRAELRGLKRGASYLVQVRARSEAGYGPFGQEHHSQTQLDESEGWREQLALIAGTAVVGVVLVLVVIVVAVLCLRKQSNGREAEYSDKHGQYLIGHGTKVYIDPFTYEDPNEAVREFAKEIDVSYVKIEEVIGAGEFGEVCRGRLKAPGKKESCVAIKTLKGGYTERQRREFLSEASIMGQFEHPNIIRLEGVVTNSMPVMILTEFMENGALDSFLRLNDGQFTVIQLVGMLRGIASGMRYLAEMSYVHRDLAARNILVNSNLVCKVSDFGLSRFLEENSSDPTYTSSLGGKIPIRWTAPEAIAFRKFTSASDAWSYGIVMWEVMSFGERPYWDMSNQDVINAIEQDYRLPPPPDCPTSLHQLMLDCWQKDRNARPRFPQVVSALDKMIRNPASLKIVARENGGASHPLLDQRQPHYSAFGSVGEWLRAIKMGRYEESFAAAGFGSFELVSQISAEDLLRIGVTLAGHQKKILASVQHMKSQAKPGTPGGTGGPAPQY
Chain of BMX (P51813 whole entry): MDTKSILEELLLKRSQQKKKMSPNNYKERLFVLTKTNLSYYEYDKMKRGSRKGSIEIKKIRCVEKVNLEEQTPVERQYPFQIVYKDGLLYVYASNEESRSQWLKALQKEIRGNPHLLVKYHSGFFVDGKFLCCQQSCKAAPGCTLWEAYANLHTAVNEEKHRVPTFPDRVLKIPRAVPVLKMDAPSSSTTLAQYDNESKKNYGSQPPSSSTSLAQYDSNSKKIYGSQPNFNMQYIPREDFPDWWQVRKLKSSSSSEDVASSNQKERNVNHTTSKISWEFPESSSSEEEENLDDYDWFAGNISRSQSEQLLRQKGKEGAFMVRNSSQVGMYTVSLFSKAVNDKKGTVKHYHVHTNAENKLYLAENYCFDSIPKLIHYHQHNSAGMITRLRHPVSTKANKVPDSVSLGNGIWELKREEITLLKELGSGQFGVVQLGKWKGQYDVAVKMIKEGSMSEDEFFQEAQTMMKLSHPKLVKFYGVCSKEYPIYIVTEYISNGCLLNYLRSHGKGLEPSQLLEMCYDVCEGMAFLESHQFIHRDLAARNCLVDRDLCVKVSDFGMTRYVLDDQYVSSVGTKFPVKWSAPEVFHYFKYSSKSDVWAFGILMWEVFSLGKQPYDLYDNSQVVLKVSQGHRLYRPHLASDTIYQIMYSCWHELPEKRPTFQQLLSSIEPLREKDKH
Chain of SRMS (Q9H3Y6 whole entry): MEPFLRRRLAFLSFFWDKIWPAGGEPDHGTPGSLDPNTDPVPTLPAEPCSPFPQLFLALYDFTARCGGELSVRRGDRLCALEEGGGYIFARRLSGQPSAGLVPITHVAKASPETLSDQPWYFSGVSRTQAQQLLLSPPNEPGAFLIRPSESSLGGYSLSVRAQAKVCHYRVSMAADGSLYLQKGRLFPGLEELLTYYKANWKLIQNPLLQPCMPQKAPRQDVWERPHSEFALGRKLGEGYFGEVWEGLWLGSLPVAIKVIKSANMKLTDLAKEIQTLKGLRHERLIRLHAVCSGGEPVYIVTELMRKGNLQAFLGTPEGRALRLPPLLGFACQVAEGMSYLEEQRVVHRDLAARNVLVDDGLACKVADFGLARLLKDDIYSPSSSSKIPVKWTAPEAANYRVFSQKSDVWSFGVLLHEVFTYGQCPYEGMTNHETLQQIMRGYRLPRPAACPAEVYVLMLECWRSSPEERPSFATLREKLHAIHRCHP

CNc1ncc2cc(-c3ccc(-c4cccc(C)n4)cc3Cl)c(=O)n(C[C@H]3OC[C@H](N)CO3)c2n1 [compound 6, G-5555]
Percent Control (YSK4): 19% | Percent Control (BMX): 100% | Percent Control (PIK3CA): 100% | Percent Control (BMPR2): 100% | Percent Control (BRSK2): 100% | Percent Control (ERK1): 74% | Percent Control (MEK4): 9.6% | Percent Control (ULK3): 52% | Percent Control (EPHB4): 100% | Percent Control (GRK4): 100% | Percent Control (STK35): 100% | Percent Control (NEK4): 100% | Percent Control (CDKL2): 58% | Percent Control (LRRK2(G2019S)): 100% | Percent Control (KIT(V559D)): 100% | Percent Control (EGFR(L861Q)): 100% | Percent Control (EPHA8): 72% | Percent Control (RPS6KA1; Kin.Dom.1 N-terminal): 69% | Percent Control (RPS6KA1; Kin.Dom.2 C-terminal, 1 µM): 81% | Percent Control (CDK19): 100% | Percent Control (CAMK1): 59% | Percent Control (DDR2): 100% | Percent Control (ARK5): 24% | Percent Control (PRKG2): 94% | Percent Control (PIK3CA(Q546K)): 100% | Percent Control (CDK2): 100% | Percent Control (CDC2L1): 97% | Percent Control (PKAC-beta): 95% | Percent Control (FLT3-autoinhibited): 100% | Percent Control (SRMS): 100% | Percent Control (CDK3): 100%
